Literature values as cited in PMC4584145 (Antiviral chemistry & chemotherapy, 2011).

What was measured:
[1] = tested on: N-HR of HIV-1 gp41; details: ELISA; N-HR containing amino acid positions 18 to 73
[2] = tested on: 5-helix complex (three N-HRs and two C-HRs)

Row | Substance | binding to the N-HR [1] | interaction with artificial 5-helix complex [2]
1 | C34: representative C-HR-derived peptide that inhibits HIV-1 fusion to host cells | binds strongly | –
2 | Enfuvirtide [T20] | binds weakly | much weaker than that between C34 and the complex
